Experimental data published in patent US11058703B2, “Application of triacetyl-3-hydroxyphenyladenosine in preparation of pharmaceutical drug for preventing or treating non-alcoholic fatty liver disease” (priority 2015, dated 2021).

Assays:
[1] = system: golden hamster with non-alcoholic fatty liver disease induced by high-fat diet; test: Body weight and liver coefficient of golden hamster with non-alcoholic fatty liver disease induced by high-fat diet; type: in vivo, Syrian golden hamster; conditions: n = 10, mean ± standard error
Procedure: The animals were fasted overnight before the end of the experiment, anesthetized by intraperitoneal injection of 3% pentobarbital sodium, the abdominal cavity was exposed, and the liver was rapidly separated after blood was taken from the aorta abdominalis. One liver lobe was preserved, and two pieces of 1×1 cm^3 pieces were cut at a fixed site, one piece was embedded in OCT, quickly frozen in liquid nitrogen, and stored in liquid nitrogen or at −80° C.; and the other piece was placed in a 4% paraformaldehyde stationary liquid and stored at 4° C.

[2] = system: golden hamster with non-alcoholic fatty liver disease induced by high-fat diet; test: Serum lipid indexes of golden hamster with non-alcoholic fatty liver disease induced by high-fat diet; type: in vivo, Syrian golden hamster; conditions: n = 10; for LDL-C: calculated LDL=TC-HDL-0.2TG
Procedure: (§1) After 5 days of adaptive feeding, animals were randomly divided into a normal control group (n=15), a high-fat diet group (n=15), an IMMH007 low-dose group (25 mg/kg, n=15), an IMMH007 medium-dose group (50 mg/kg, n=15), and an IMMH007 high-dose group (100 mg/kg, n=15), and given intragastric administration twice daily.
(§2) The animals were fasted for 12 hours, and 0.5 ml blood was collected from the angular vein and allowed to stand for 60 min, and centrifuged at 6000 g for 10 min, and the supernatant was aspirated as much as possible, and then centrifuged at 6000 g for 10 min. The absorbance values were measured according to the instructions of the total cholesterol (TC), triglycerides (TG), aspartate aminotransferase (AST), and alanine aminotransferase (ALT) kits, and the concentration of each index was calculated. 50 ul serum was mixed with 50 ul PEG6000 in a ratio of 1:1, vortexed uniformly, allowed to stand for 10 min, and centrifuged at 1900 g for 20 min at room temperature, and the supernatant was carefully pipetted, stored at 4° C., and measured for high density lipoprotein cholesterol (HDL-C) according to the instructions of the total cholesterol (TC) kit. The plasma low density lipoprotein (LDL) level was calculated by subtracting HDL-C and 0.2-fold TG levels from plasma total cholesterol TC, ie, LDL=TC-HLD-0.2TG.

[3] = system: golden hamster with non-alcoholic fatty liver disease induced by high-fat diet; test: Lipid content in liver tissue of golden hamster with non-alcoholic fatty liver disease induced by high-fat diet; type: in vivo, Syrian golden hamster; conditions: n = 10
Procedure: 100 mg liver tissue was accurately weighed, and added with a triglyceride detection lysate, the tissue was homogenized by a homogenizer in an ice bath to no significant tissue mass, placed on ice for 5 min, transferred to a 1.5 ml centrifuge tube, and centrifuged at 14000 g for 10 min at 4° C., the supernatant was transferred and a portion of the supernatant was taken for protein quantification, and detected for its lipid content according to the instructions of the TC and TG detection kits.

[4] = system: golden hamster with non-alcoholic fatty liver disease induced by high-fat diet; conditions: in vivo
Procedure: as §1, §2

[5] = system: golden hamster with non-alcoholic fatty liver disease induced by high-fat diet; test: Liver function (serum ALT, AST) of golden hamster with non-alcoholic fatty liver disease induced by high-fat diet; conditions: n = 10; for GPT: serum ALT; for GOT: serum AST
Procedure: as §1, §2

In the case of `CC(=O)OCC1OC(n2cnc3c(Nc4cccc(O)c4)ncnc32)C(OC(C)=O)C1OC(C)=O` (stereo not shown) [IMM-H007, triacetyl-3-hydroxyphenyladenosine], the “Body Weight” value ([1]; IMM-H007 50 mg/kg) is reported as 170 ± 11, the “Liver Organ Coefficient” value ([1]; IMM-H007 50 mg/kg) is reported as 0.0313 ± 0.002 and the “Liver Organ Coefficient” value ([1]; IMM-H007 100 mg/kg) is reported as 0.0291 ± 0.003. The “Body Weight” value ([1]; IMM-H007 100 mg/kg, in g (unit assumed)) was 177 ± 9, the “Body Weight” value ([1]; IMM-H007 200 mg/kg) was 166 ± 12 and the “Liver Organ Coefficient” value ([1]; IMM-H007 200 mg/kg) was 0.0298 ± 0.002. The FFA ([2]; IMM-H007 50 mg/kg) was 2324.6 ± 783.4 μEq/L, the HDL-C ([2]; IMM-H007 50 mg/kg) was 2.8 ± 0.4 mmol/L and the TC ([2]; IMM-H007 50 mg/kg) was 7.9 ± 1.0 mmol/L. The TG ([2]; IMM-H007 50 mg/kg) was 4.7 ± 1.9 mmol/L, the FFA ([2]; IMM-H007 100 mg/kg) was 1889.5 ± 386.5 μEq/L and the HDL-C ([2]; IMM-H007 100 mg/kg) was 2.8 ± 0.2 mmol/L. For the same compound, the TC ([2]; IMM-H007 100 mg/kg) was 7.0 ± 1.0 mmol/L, the TG ([2]; IMM-H007 100 mg/kg) was 4.3 ± 1.4 mmol/L and the FFA ([2]; IMM-H007 200 mg/kg) was 1497.6 ± 326.2 μEq/L. It also gave an HDL-C ([2]; IMM-H007 200 mg/kg) of 2.6 ± 0.5 mmol/L, a TC ([2]; IMM-H007 200 mg/kg) of 6.7 ± 1.0 mmol/L and a TG ([2]; IMM-H007 200 mg/kg) of 2.7 ± 0.8 mmol/L. For the same compound, the LDL-C ([2]; IMM-H007 50 mg/kg) was 4.1 ± 1.2 mmol/L, the LDL-C ([2]; IMM-H007 100 mg/kg) was 4.0 ± 0.7 mmol/L and the LDL-C ([2]; IMM-H007 200 mg/kg) was 3.3 ± 0.5 mmol/L. The TC ([3]; IMM-H007 50 mg/kg) was 2.8 ± 0.8 µmol/g protein, the TG ([3]; IMM-H007 50 mg/kg) was 3.6 ± 0.1 µmol/g protein and the TC ([3]; IMM-H007 100 mg/kg) was 2.4 ± 0.4 µmol/g protein. The TG ([3]; IMM-H007 100 mg/kg) was 3.3 ± 0.1 µmol/g protein, the TC ([3]; IMM-H007 200 mg/kg) was 1.8 ± 0.8 µmol/g protein and the TG ([3]; IMM-H007 200 mg/kg) was 2.8 ± 0.1 µmol/g protein. For the same compound, the “Effect on the liver as concluded from serum ALT and AST” value [4] was “good hepatic protective effect”, the GPT ([5]; IMM-H007 50 mg/kg) was 21.1 ± 5.2 U/L and the GPT ([5]; IMM-H007 100 mg/kg) was 20.9 ± 8.0 U/L. It also gave a GPT ([5]; IMM-H007 200 mg/kg) of 12.4 ± 3.1 U/L, a GOT ([5]; IMM-H007 50 mg/kg) of 9.4 ± 1.7 U/L and a GOT ([5]; IMM-H007 100 mg/kg) of 8.4 ± 2.3 U/L. It also gave a GOT ([5]; IMM-H007 200 mg/kg) of 7.2 ± 2.1 U/L.
